According to patent US20220298511A1, “APPLICATION OF COMBINED INHIBITION OF LNCRNA SAMMSON AND BRAF KINASE IN DELAYING ADAPTIVE DRUG-RESISTANCE OF MELANOMA” (XI'AN JIAOTONG UNIVERSITY, priority 2021, published 2022):

Columns and labels:
[1] = test system: SAMMSON RNA level in A375 melanoma cells carrying BRAF^V600E mutation; experiment: qRT-PCR analysis of SAMMSON RNA level after kinase inhibitor treatment; details: 2 μM inhibitor, 0, 6 and 24 hours, actin as internal control
Experimental: (§3) Melanoma cell lines 1205Lu and A375 carrying BRAF^V600E mutation and HEK293FT cells were cultured in a 37° C. constant temperature incubator (containing 5% CO2). The A375 and HEK293FT cells were cultured in Dulbecco's Modified Eagle's Medium (DMEM), and the 1205Lu cells were cultured in Roswell Park Memorial Institute 1640 medium (RPMI 1640 medium). Both of the media contain 10% fetal bovine serum, penicillin (100 units/ml), and streptomycin (100 μg/ml).
(§4) Total RNA was extracted from the melanoma cells using TriPure Isolation Reagent (Roche, Basel, Switzerland), and then reverse transcribed into cDNA using the kit PrimeScript RT Master Mix (Takara #DRR036A, Osaka, Japan). Quantitative real-time PCR reactions were performed using iQ SYBR Green Supermix (BioRad), and analyzed by CFX Connect real-time PCR detection system (BioRad).

[2] = test system: SAMMSON RNA level in 1205Lu melanoma cells carrying BRAF^V600E mutation; experiment: as above; details: 1205Lu cells, 2 μM inhibitor, 0, 6 and 24 hours, actin as internal control
Experimental: as §3, §4

A375 cells = experiment: Annexin-V/PI apoptosis assay with SAMMSON siRNA knockdown and vemurafenib; type: cell-based; details: then 5 μM vemurafenib 48 hours
Experimental: (§1) The cells were collected, washed twice with PBS and stained for 20-30 minutes using Annexin-V-FLUOS kit (Roche) according to the manufacturer's protocol. The stained cells were analyzed by a flow cytometer (Beckman Coulter, Indianapolis Ind., USA). The data were analyzed using Flowjo software (Three Star, Inc., Ashland, Oreg., USA).
The non-targeting control siRNA sequence is:
We tested whether the up-regulation of SAMMSON induced by the inhibition of the ERK signaling pathway is involved in the adaptive drug-resistance of melanoma cells. Two pairs of specific siRNAs (SEQ ID NO: 4 and SEQ ID NO: 5) were used to knock down SAMMSON in two melanoma cell lines A375 and 1205Lu carrying BRAF mutations. […] Referring also to FIGS. 3C to 3F, in A375 cells, percentage of cell apoptosis increased from 19% to 43% (SAM #1) and 37% (SAM #2), and in 1205Lu cells, from 26% to 43% (SAM #1) and 46% (SAM #2).

1205Lu TR SAMMSON cells = experiment: Annexin-V/PI apoptosis assay with doxycycline-induced SAMMSON overexpression; type: cell-based; details: 5 μM vemurafenib 48 hours
Experimental: (§2) The wild-type HA-SOX10 cDNA or SAMMSON cDNA was cloned into a pENTR/D-TOPO vector (Thermo Fisher Scientific) to construct an entry vector. Then, the entry vector and a pLentipuro/TO/V5-DEST vector were recombined to form a lentiviral vector. Lentivirus packaging for the lentiviral vector was performed in HEK293FT cells to produce lentiviruses. The melanoma cells 1205Lu and A375 were infected with the lentiviruses for 72 hours, and then screened by using puromycin to produce A375-TR HA-SOX10 WT cells, 1205Lu-TR HA-SOX10 WT cells, A375-TR SAMMSON cells and 1205Lu-TR SAMMSON cells.
as §1

A375 TR SAMMSON cells = experiment: as above; type: cell-based; details: 5 μM vemurafenib 48 hours
Experimental: as §2, §1

[3] = with 100 ng/ml doxycycline 72 hours (SAMMSON overexpressed)

Compound: O=C(Nc1ccc2[nH]nc(-c3ccncc3)c2c1)[C@@H]1CCN(CC(=O)N2CCN(c3ccc(-c4ncccn4)cc3)CC2)C1 [SCH772984]
- RNA level of SAMMSON [1]: rapidly up-regulate the RNA level of SAMMSON
- RNA level of SAMMSON [2]: rapidly up-regulate the RNA level of SAMMSON

Compound: CCCS(=O)(=O)Nc1ccc(F)c(C(=O)c2c[nH]c3ncc(-c4ccc(Cl)cc4)cc23)c1F [vemurafenib, Vemurafenib]
- percentage of cell apoptosis (A375 cells; control siRNA 48 hours): 19%
- percentage of cell apoptosis (1205Lu TR SAMMSON cells; [3]): 33%
- percentage of cell apoptosis (1205Lu TR SAMMSON cells; without doxycycline): 44%
- percentage of cell apoptosis (A375 TR SAMMSON cells; [3]): 33%
- percentage of cell apoptosis (A375 TR SAMMSON cells; without doxycycline): 51%

Compound: SAM #1: SAMMSON-specific siRNA, SEQ ID NO: 4, 5′-GUCGCUAGACAUUUGAGGA-3′ (listed as RNA, chemistry not given here)
- percentage of cell apoptosis (A375 cells; SAMMSON siRNA 48 hours): 43%

Compound: SAM #2: SAMMSON-specific siRNA, SEQ ID NO: 5, 5′-CCAACUCUCAAAGUAACUU-3′ (listed as RNA, chemistry not given here)
- percentage of cell apoptosis (A375 cells; SAMMSON siRNA 48 hours): 37%
